“Also recorded” adds a separate entry of the source. Read-outs that look alike come from different tables or passages of the source.
Legend:
[1] = target: JAK2 (Homo sapiens (Human), UniProt O60674); assay: LanthaScreen JAK biochemical assay, JAK2
Method: (§1) A panel of four LanthaScreen JAK biochemical assays (JAK1, 2, 3 and Tyk2) were carried in a common kinase reaction buffer (50 mM HEPES, pH 7.5, 0.01% Brij-35, 10 mM MgCl2, and 1 mM EGTA). Recombinant GST-tagged JAK enzymes and a GFP-tagged STAT1 peptide substrate were obtained from Life Technologies.

[2] = in vivo; conditions: Sprague Dawley, rat, po
Method: The test compound was formulated in 0.5% methyl-cellulose in water and dosed via oral gavage at 3.2 mg/kg and 100 mg/kg to Sprague Dawley rats. At various time points (typically 0.5, 1, 3, 6, 24 hr) post dosing, blood samples were removed via cardiac puncture and intact colons were excised from the rats. Blood samples were centrifuged at 1500×g for 15 min to collect plasma. Colons were washed with ice cold phosphate buffered saline (PBS), weighed, and homogenized at a dilution of 1:10 in PBS. Plasma and colon levels of test compound were determined by LC-MS analysis against analytical standards constructed into a standard curve in the test matrix. A colon to plasma ratio was determined as the ratio of the colon AUC to the plasma AUC in μg hr/g.

[3] = in vivo
Text: The objective of this assay was to determine the epidermal, dermal and plasma pharmacokinetics of a test compound following a 24 hr exposure to intact mouse or mini-pig skin.
Twenty-four hours prior to dosing the hair was shaved from the back of 25 g male Balb/c mice exposing an area at of least 6 cm^2 (about 10% of body surface) and, in a separate experiment, of 10 kg Gottingen mini-pigs exposing an area of at least 450 cm^2 (about 10% of body surface). […] The skin was covered with an adhesive cover to prevent loss of compound to the cage or bedding.
Following 24 h exposure, the backs were gently washed with soap and water to remove non-absorbed drug and patted dry. Immediately following this washing, blood was drawn by cardiac puncture from the mice and via venipuncture from the mini-pigs. The outer skin (stratum corneum) was then removed by adhesive tape stripping. Upon exposure of the epidermis a 0.5 cm punch biopsy was taken. The epidermis and dermis were quickly separated, weighed and snap frozen.

[4] = system: IFNγ stimulated STAT1 phosphorylation in CD14+ monocytes; assay: Cellular JAK potency assay: inhibition of IFNγ-induced pSTAT1; assay type: cell-based; conditions: Homo sapiens, Monocyte
Method: The potency of test compounds for inhibition of interferon gamma (IFNγ) stimulated STAT1 phosphorylation was measured in CD14-positive (CD14+) monocytes derived from human whole blood (Stanford Blood Center) using flow cytometry. Because IFNγ signals through JAK, this assay provides a measure of JAK cellular potency.
Monocytes were identified using a fluorescein isothiocyanate (FITC) conjugated anti-CD14 antibody (Clone RM052, Beckman Coulter), and an Alexa Fluor 647 conjugated anti-pSTAT1 antibody (pY701, Clone 4a, BD Biosciences) was used to detect STAT1 phosphorylation.
Human peripheral blood mononuclear cells (PBMC) were isolated from human whole blood of healthy donors using a ficoll gradient. […] Cells were washed twice with FACS buffer, and then resuspended in 1:10 anti-pSTAT1 Alexa Fluor 647:FACS buffer (100 μL) for 30 min at RT in the dark, washed twice in FACS buffer, and analyzed using a LSRII flow cytometer (BD Biosciences).
To determine the inhibitory potency of test compounds, the median fluorescent intensity (MFI) of pSTAT1 was measured in CD14+ monocytes. IC50 values were determined from analysis of the inhibition curves of MFI vs compound concentration. Data are expressed as pIC50 (negative decadic logarithm IC50) values (mean±standard deviation).

[5] = system: TPA-induced increase in ear thickness; assay: Topical TPA-induced irritant contact dermatitis model in mice; assay type: in vivo, Balb/c mice; conditions: mouse ear, 6 hours after TPA
Method: The objective of this assay is to assess the anti-inflammatory effect in a model of acute dermatitis of test compounds being studied for cutaneous inflammatory conditions such as atopic dermatitis (Dong et al., J Pharmacol Exp Ther, 2013, 344, 436-446).
Topical dermal application of phorbol ester 12-O-tetradecanoylphorbol-13-acetate (TPA) in mice causes an inflammatory response that is characterized by edema and neutrophil influx at the early phase (2-24 h) and by epidermal cell proliferation at the later phase (24-48 h) (Griffiths et al., Agents and Actions, 1988, 25, 344-351). Female Balb/c mice were topically administered with either vehicle (1:7 DMSO:acetone) or 20 μL of a solution of TPA (2.5 μg) in vehicle on each ear. At 30 min before and 15 min after TPA administration, either vehicle or the compound of Example 2 at doses of 30, 100, 300, 1000, and 3000 μg in vehicle was applied topically to each ear. The degree of inflammation was assessed as the change in ear thickness at 6 hours after TPA application.

[6] = target: Tyk2 (Homo sapiens (Human), UniProt P29597); assay: LanthaScreen JAK biochemical assay, Tyk2
Sequence of Tyk2 (P29597 whole entry): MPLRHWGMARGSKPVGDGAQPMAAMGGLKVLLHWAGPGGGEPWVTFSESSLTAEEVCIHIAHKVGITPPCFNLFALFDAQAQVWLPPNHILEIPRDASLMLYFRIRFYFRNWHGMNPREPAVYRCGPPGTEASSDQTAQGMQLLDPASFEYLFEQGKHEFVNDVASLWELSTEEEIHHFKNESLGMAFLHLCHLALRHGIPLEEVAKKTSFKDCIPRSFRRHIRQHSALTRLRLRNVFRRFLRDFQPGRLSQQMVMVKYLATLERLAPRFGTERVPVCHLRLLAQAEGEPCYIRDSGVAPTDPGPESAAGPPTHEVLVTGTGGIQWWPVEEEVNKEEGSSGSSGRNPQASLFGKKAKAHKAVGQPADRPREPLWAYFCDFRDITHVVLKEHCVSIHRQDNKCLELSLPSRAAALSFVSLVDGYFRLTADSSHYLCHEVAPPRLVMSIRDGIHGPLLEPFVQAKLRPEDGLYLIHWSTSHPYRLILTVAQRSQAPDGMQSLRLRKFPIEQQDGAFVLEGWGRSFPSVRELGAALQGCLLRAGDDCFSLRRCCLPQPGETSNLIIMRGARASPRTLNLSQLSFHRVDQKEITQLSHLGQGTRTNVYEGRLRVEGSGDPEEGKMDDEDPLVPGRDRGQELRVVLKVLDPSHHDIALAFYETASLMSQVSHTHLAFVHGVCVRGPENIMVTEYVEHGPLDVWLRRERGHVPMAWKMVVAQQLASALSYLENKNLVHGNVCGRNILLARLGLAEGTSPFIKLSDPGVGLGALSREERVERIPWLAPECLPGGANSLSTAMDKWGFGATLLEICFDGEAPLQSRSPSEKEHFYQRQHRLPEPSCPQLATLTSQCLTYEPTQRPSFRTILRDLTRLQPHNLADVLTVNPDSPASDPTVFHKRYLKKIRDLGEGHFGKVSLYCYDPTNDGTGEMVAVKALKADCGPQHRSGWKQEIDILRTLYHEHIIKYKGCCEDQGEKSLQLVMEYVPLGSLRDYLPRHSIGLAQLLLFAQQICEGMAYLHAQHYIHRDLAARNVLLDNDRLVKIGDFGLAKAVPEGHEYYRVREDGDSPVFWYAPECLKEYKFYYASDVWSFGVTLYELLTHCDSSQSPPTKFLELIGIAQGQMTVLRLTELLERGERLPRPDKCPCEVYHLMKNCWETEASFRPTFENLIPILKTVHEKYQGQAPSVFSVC
Method: as §1

Sequence of JAK2 (O60674 whole entry): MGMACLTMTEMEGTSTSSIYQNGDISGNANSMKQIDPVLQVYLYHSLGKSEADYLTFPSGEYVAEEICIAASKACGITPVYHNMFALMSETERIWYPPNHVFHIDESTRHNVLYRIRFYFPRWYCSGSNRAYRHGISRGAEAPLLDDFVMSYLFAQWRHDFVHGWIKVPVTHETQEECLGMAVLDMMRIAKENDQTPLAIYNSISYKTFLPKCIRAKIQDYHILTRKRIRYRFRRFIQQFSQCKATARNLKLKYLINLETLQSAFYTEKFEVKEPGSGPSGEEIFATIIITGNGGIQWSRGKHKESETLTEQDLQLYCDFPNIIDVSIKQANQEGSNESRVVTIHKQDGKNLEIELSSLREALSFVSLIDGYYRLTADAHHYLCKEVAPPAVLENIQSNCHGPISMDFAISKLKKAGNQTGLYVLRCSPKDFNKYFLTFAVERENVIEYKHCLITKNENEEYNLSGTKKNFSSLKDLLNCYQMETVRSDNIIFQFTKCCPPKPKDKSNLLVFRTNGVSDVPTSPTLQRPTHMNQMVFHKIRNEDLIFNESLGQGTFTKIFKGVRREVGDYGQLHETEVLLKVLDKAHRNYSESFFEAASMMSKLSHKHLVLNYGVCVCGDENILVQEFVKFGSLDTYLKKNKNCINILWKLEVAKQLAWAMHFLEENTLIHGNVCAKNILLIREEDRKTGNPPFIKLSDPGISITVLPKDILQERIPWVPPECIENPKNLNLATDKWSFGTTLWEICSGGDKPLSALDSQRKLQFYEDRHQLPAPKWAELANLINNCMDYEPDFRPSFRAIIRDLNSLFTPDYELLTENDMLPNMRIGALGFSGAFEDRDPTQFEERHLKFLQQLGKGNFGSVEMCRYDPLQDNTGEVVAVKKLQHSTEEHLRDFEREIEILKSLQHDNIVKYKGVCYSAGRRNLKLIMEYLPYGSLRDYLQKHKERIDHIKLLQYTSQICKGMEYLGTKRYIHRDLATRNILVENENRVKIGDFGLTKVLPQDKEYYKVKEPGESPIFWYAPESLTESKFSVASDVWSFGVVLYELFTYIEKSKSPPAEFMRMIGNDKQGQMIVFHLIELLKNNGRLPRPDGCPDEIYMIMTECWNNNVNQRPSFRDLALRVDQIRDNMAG

**Q.** What does the source list for `COc1cc(Nc2cc(CO)[nH]n2)nc(N(C)[C@@H]2C[C@H]3CCC[C@@H](C2)N3S(=O)(=O)N2CC(C#N)C2)n1` [Example 2, 1-(((1R,3s,5S)-3-((4-((5-(Hydroxymethyl)-1H-pyrazol-3-yl)amino)-6-methoxypyrimidin-2-yl)(methyl)amino)-9-azabicyclo[3.3.1]nonan-9-yl)sulfonyl)azetidine-3-carbonitrile]?
**A.** JAK 2 (pKi) [1]: A (A represents a pKi value≥10 (Ki≤0.1 nM)); Kp ([2]; 5 mg/kg): > 250; Kp ([2]; 100 mg/kg): > 1200; duration of sustained dermal levels ([3]; Gottingen, minipig): at least 7 days; duration of sustained dermal levels ([3]; male, Balb/c, mouse): at least 2 days; IC50 ([4]; IFNγ-induced pSTAT1, CD14+ monocytes, read-out: pIC50 value (converted)): ~25.1 nM; IC50 ([4]; cellular assay, Assay 5, read-out: IC50 for inhibition of IFNγ): ≤ 50 nM; inhibition of TPA-induced increase in ear thickness (in words) ([5]; topical 30-3000 μg): dose- and concentration-dependent effect; also recorded: dose- and concentration-dependent inhibition; maximum statistically significant inhibition of TPA-induced increase in ear thickness ([5]; topical, 1000 μg dose): 41%; Ki [6]: 0.1 to 1 nM

From US10028960B2, “Pyrimidine compounds as JAK kinase inhibitors” (THERAVANCE BIOPHARMA R&D IP, LLC, priority 2016, dated 2018)
